From publication PMC9919490, “Synthesis and Biological Evaluation of Novel Dispiro-Indolinones with Anticancer Activity” (Molecules, 2023)

Key:
[1] = system: p53, PUMA, CASPASE-3 in HCTwt cells; experiment: Western blot, p53 and p53-dependent apoptosis proteins; assay type: cell-based
Protocol: To verify the mechanism of cytotoxic action of the synthesized dispiro-indolinones, Western blot testing of dispiro-indolinone 29 was performed using the p53-expressing HCTwt and LNCaP cell lines. Both the p53 protein and the proteins involved in the p53-dependent process of apoptosis (i.e., BAX, NOXA, and PUMA) were determined. For comparison, similar testing was carried out for a cell line not expressing p53 (HCT^(−/−)).

PC3 cells = experiment: MTT cytotoxicity assay, PC3 (p53 neg); assay type: cell-based; details: Homo sapiens, PC-3, 48 h
[2] = Solubility in aqueous media (observation); assay type: physicochemical; details: observed in acute toxicity pilot, doses > 2500 mg/kg not feasible
Protocol: To select the doses, the pilot experiments were carried out on a minimum number of animals. […] When administered in large doses during autopsy in the abdominal cavities of the mice, on the inner wall and membranes of the abdominal organs, remnants of the non-absorbed drug were found in the form of white layers, indicating incomplete absorption and insufficient solubility of the agent. […] According to the data obtained from the trial experiment, in the main study—with intraperitoneal administration—a dose of 2500 mg/kg was used.

HCT^−/− cells = experiment: MTT cytotoxicity assay, HCT^−/− (p53 neg); assay type: cell-based; details: 48 h
LNCaP cells = experiment: MTT cytotoxicity assay, LNCaP (p53 pos); assay type: cell-based; details: Homo sapiens, LNCaP, 48 h
Protocol: The synthesized compounds were tested for their ability to block the proliferation of the selected model cell lines: LNCaP (p53+), PC3 (p53-), HCT^wt (p53+), and HCT^−/− (p53-) cells. The assay was carried out using the standard MTT (3-(4,5-dimethylthiazol-2-yl)2,5-diphenyl tetrazolium bromide) assay based on the modified approach reported by Ferrari and colleagues. […] Differences in IC50 values against these cell lines were used to assess the selectivity of the compounds.
Model cell lines were purchased from the in stock collection of the N.N. Blokhin Russian Cancer Research Center (RAMS). Cells were accurately maintained in the recommended media, supplemented with 10% heat-inactivated FBS (Invitrogen) and 2 mmol/L L-glutamine (Invitrogen).
First, 4000 cells per well were plated out in 140 µL of DMEM (with 10% FBS) in 96-well plates and incubated in 5% CO2 for 24 h at 37 °C without treatment. […] The cells were treated for 48 h with […] (eight dilutions) concentrations of the substances (each in triplicate) or doxorubicin (0.3 nM–600 nM, eight dilutions) as a control substance. After the incubation, 15 µL of MTT solution in PBS (5 mg/mL) was added, and the cells were incubated for 2 h, followed by removal of the media and addition of 120 µL of DMSO. […] Cell survival rates were determined by the comparison of optical density with the corresponding untreated control cell culture. Dose-dependent curves and the corresponding IC50 values were calculated using “GraphPad Prism 6” software (GraphPad Software, Inc., San Diego, CA, USA).

Acute toxicity = assay type: in vivo; details: for body weight (M ± m): i.p. 2500 mg/kg
Protocol: Acute toxicity tests were performed on mature outbred mice (male and female). The design of the experiment is specified in Table S3 (Supplementary Materials).
To select the doses, the pilot experiments were carried out on a minimum number of animals.
The surviving animals were subjected to euthanasia and necropsy on the 29th day of the experiment to study the effects of the test agent on their internal organs.
Outbred mice (males and females) were used in the experiments. Intraperitoneal injections were applied in the posterior third of the abdomen, slightly departing from the midline. The mice were injected with 1 mL of the solution. […] The solution was prepared ex tempore. Doses were calculated for each animal separately, according to body weight data.
The group arithmetic mean (M) and standard error of the mean (m) were calculated. Statistical significance of the differences was assessed using Student’s t-test. The differences between these groups were considered significant at p < 0.05.

P388 = P388 transplant model in mice; assay type: in vivo; details: for ALS (average life span): control 16.6 ± 1.8 d
Protocol: To preliminary estimate the antitumor effect of the compound in vivo, transplant P388 and HCT116 xenograft mouse models were used.
Prior to the trials, the animals were split into different groups (five mice per group). One group was monitored as a control population, where the animals were kept untreated, while the other groups were subjected to the tested compound. […] Four independent trials were carried out.
For the first evaluation, the sample was initially injected i.p. on day 2 of the study, and the treatment was subsequently continued during the following 9 days (total 10 d course). The typical doses were calculated considering the average body weight of the animals (20 g) and ranged between groups 1 and 3; group 4 was assigned as a control population. […] To verify the obtained results, we performed the second evaluation using the following schedule: the first group was administered i.p. with 500 mg/kg (5000 mg/kg), the second group was given 750 mg/kg (7500 mg/kg), and the third group was given 1000 mg/kg (10,000 mg/kg). We also carried out the third trial with an appropriate dose of 1000 mg/kg. For p.o. administration (trial 4), we used a single dose (170 mg/kg) of the unmodified compound; the cumulative dose was 1700 mg/kg.
DBA2 mice were used as donors of cancerous mass; a total of 50 animals were recruited. Twenty-three conventional, immunodeficient female mice (BALB/c nude, 20–23 g) were housed in RAMS and used as donors and recipients for HCT116 cells.
For the evaluation of the compound against leucosis in vivo, we used 5 and 8 passages of P388 culture. […]

[3] = first trial, i.p. 295 mg/kg (g1)
[4] = first trial, i.p. 882 mg/kg (g2)

Q: With `CCOc1ccc(N2C(=O)C3(NC2=S)C(c2ccc(Cl)cc2)CN(C)C32C(=O)Nc3ccc(Br)cc32)cc1` (centres unmarked) [Compound 29] as the molecule, how does the “concentration / expression of the p53 protein” value ([1]; HCTwt cell culture, increasing concentration, nutlin-3a 20 µM positive control) read?
A: Its value is “slight increase”.

Q: And the “expression of CASPASE-3” value ([1]; Western blot)?
A: Its value is “increase”.

Q: What about the “expression of PUMA” value ([1]; Western blot) of the same molecule?
A: Its value is “increase”.

Q: And the IC50 (PC3 cells)?
A: The IC50 was 9.8 ± 3.7 µM.

Q: What about the “solubility in aqueous media” value [2] of the same molecule?
A: The value was “low solubility”.

Q: What about the IC50 (HCT^−/− cells) of the same molecule?
A: Its IC50 is 70.5 ± 15.2 µM.

Q: What about the IC50 (LNCaP cells) of the same molecule?
A: The IC50 was 3.5 ± 1.9 µM.

Q: And the autopsy finding (Acute toxicity; 29th day after exposure, intraperitoneal 2500 mg/kg)?
A: The autopsy finding was “increase in the liver, with signs of dystrophy”.

Q: What about the “dynamics of body weight” value (Acute toxicity; intraperitoneal 2500 mg/kg, vs control mice) of the same molecule?
A: The value was “did not show differences from the control mice”.

Q: What about the “clinical picture of intoxication” value (Acute toxicity; intraperitoneal, 2500 mg/kg) of the same molecule?
A: The value was “depressed state, a decrease in motor activity, and the release of porphyrin”.

Q: And the “time after which symptoms of intoxication disappeared” value (Acute toxicity; intraperitoneal, 2500 mg/kg)?
A: The value was 30 to 60 min.

Q: And the deaths (Acute toxicity; intraperitoneal, 2500 mg/kg, observation 28 days)?
A: The deaths was “no deaths were registered”.

Q: What about the “body weight (M ± m)” value (Acute toxicity; ♀, day 0) of the same molecule?
A: The value was 23,8±0,54 grams.

Q: And the “body weight (M ± m)” value (Acute toxicity; ♀, day 7)?
A: Its value is 24,0±1,25 grams.

Q: And the “body weight (M ± m)” value (Acute toxicity; ♀, day 14)?
A: The value was 24,5±0,91 grams.

Q: What about the “body weight (M ± m)” value (Acute toxicity; ♀, day 21) of the same molecule?
A: Its value is 24,0±1,13 grams.

Q: What about the “body weight (M ± m)” value (Acute toxicity; ♀, day 29) of the same molecule?
A: The value was 25,0±1,18 grams.

Q: What about the “body weight (M ± m)” value (Acute toxicity; ♂, day 0) of the same molecule?
A: Its value is 24,6±0,53 grams.

Q: What about the “body weight (M ± m)” value (Acute toxicity; ♂, day 7) of the same molecule?
A: Its value is 25,2±0,49 grams.

Q: What about the “body weight (M ± m)” value (Acute toxicity; ♂, day 14) of the same molecule?
A: Its value is 26,9±0,58 grams.

Q: What about the “body weight (M ± m)” value (Acute toxicity; ♂, day 21) of the same molecule?
A: The value was 26,0±0,63 grams.

Q: And the “body weight (M ± m)” value (Acute toxicity; ♂, day 29)?
A: The value was 24,1±0,32 grams.

Q: What about the “mortality at highest dose, close to the MTD” value (P388; 1263 mg/kg (12,630 mg/kg cumulative), day 3 after the treatment was stopped) of the same molecule?
A: Its value is “one mouse (bw = 19 g) dying”.

Q: What about the “days on which lethal outcomes were registered” value (P388; [3]) of the same molecule?
A: Its value is 16 to 24 days.

Q: And the “LSE (lifespan extension)” value (P388; first trial, i.p. 295 mg/kg (g1), p > 0.05)?
A: Its value is 17%.

Q: And the “ALS (average life span)” value (P388; [3])?
A: Its value is 19.8 ± 3.0 days.

Q: What about the “days on which lethal outcomes were registered” value (P388; [4]) of the same molecule?
A: The value was 18 to 22 days.

Q: What about the “LSE (lifespan extension)” value (P388; first trial, i.p. 882 mg/kg (g2), p > 0.05) of the same molecule?
A: Its value is 19%.

Q: What about the “ALS (average life span)” value (P388; [4]) of the same molecule?
A: The value was 19.4 ± 1.7 days.

Q: What about the “days on which deaths were observed” value (P388; first trial, i.p. 1176 mg/kg (g3)) of the same molecule?
A: The value was 14 to 22 days.

Q: And the TGRI (P388; first trial, i.p. 1176 mg/kg (g3), subsequent three days)?
A: The TGRI was 40%.

Q: And the TGRI (P388; first trial, i.p. 1176 mg/kg daily (g3), 24 h after the treatment was discontinued)?
A: Its TGRI is 76%.

Q: What about the T/C (P388; first trial, i.p. o.d. 10 days, 295 and 882 mg/kg) of the same molecule?
A: The T/C was < 42%.

Q: What about the “TGRI (tumor growth rate inhibition)” value (P388; first trial, sample (17% compound, Pluronic F-127) i.p. o.d. 10 days, 295 mg/kg (g1) and 882 mg/kg (g2), p > 0.05) of the same molecule?
A: Its value is 32–37%.

Q: And the TGRI (P388; i.p. 500 mg/kg)?
A: The TGRI was “approx. 50%”.

Q: And the Т/C% (P388; p.o. 170 mg/kg o.d. 10 days, day 12)?
A: Its Т/C% is 84%.

Q: What about the “Tumor volume, av. volume” value (P388; p.o. 170 mg/kg o.d. 10 days, day 12, control 570) of the same molecule?
A: The value was 481 mm3.

Q: What about the “Tumor volume, av. volume” value (P388; p.o. 170 mg/kg o.d. 10 days, day 15, control 804) of the same molecule?
A: The value was 1099 mm3.

Q: And the TGRI (P388; second trial, i.p. 750 mg/kg o.d., day 2 after the treatment was completed, p = 0.002)?
A: The TGRI was 68%.

Q: And the TGRI (P388; second trial, i.p. 750 mg/kg o.d., subsequent 3 days)?
A: The TGRI was 62%.

Q: And the LSE (P388; third trial, i.p. 1000 mg/kg o.d.)?
A: Its LSE is 33.33%.

Q: And the TGRI (P388; third trial, i.p. 1000 mg/kg o.d. 10 days, day 2 after the treatment was completed)?
A: The TGRI was 81.3%.

Q: And the TGRI (P388; third trial, i.p. 1000 mg/kg o.d., day 8 after the treatment was discontinued (final control timepoint))?
A: Its TGRI is 93%.

Q: And the TGRI (P388; third trial, i.p. 1000 mg/kg o.d., following 3 days)?
A: The TGRI was 89%.
